#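 Method: 48-hour compound exposure of cells in 96-well plates, five concentrations, linear interpolation of endpoints. Definition used: TGI = concentration required for complete inhibition of growth.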 Where a SMILES comes first, the peptide text is derived from it. [ ]: non-standard residue; d: D form. The star is where a group is joined. ξ: configuration not given here. NMeY = CN[C@@H](Cc1ccc(O)cc1)C(=O)O; Cbz = O=C(OCc1ccccc1)*; ξA = CC(N)C(=O)O
# Experiments:
# Assay in all cases: DTP human tumour cell line panel, 48 h
# A549 NSCLC = system: A549 NSCLC
# BT-549 breast = system: BT-549 breast
# HCT-15 colon = system: HCT-15 colon
# K-562 leukemia = system: K-562 leukemia
# MALME-3M melanoma = system: MALME-3M melanoma
# NCI-H522 lung = system: NCI-H522 lung
# OVCAR-5 ovarian = system: OVCAR-5 ovarian
# SNB-75 CNS = system: SNB-75 CNS
# UACC-62 melanoma = system: UACC-62 melanoma
# SF-295 CNS = system: SF-295 CNS
# HOP-92 NSCLC = system: HOP-92 NSCLC
SMILES,TGI (A549 NSCLC) [µM],TGI (BT-549 breast) [µM],TGI (HCT-15 colon) [µM],TGI (K-562 leukemia) [µM],TGI (MALME-3M melanoma) [µM],TGI (NCI-H522 lung) [µM],TGI (OVCAR-5 ovarian) [µM],TGI (SNB-75 CNS) [µM],TGI (UACC-62 melanoma) [µM],TGI (SF-295 CNS) [µM],TGI (HOP-92 NSCLC) [µM]
O=c1[nH][nH]c(=O)n1Cc1ccccc1,> 100,> 100,> 100,> 100,> 100,> 100,> 100,> 100,> 100,,
O=C1CC(n2ccnc2)c2c(Cl)sc(Cl)c21 (stereo not drawn),> 64.7,32.8,28.1,> 38.1,36.1,17.1,48.1,52,32,> 78.1,
CCOC(=O)/C=C(/C(=O)OCC)n1ccc(=O)n(Cc2cn(CCCCOC(C)=O)nn2)c1=O,> 100,> 100,> 100,> 100,,29.3,> 100,> 100,> 100,> 100,20.6
CN1C(=O)C(=Cc2ccc(Br)cc2)C(=O)N(C)C1=O,> 100,> 100,> 100,> 100,,,> 100,> 100,> 100,> 100,> 100
COC(C)=NCCC1=CCCCC1,> 100,> 100,> 100,> 100,> 100,> 100,> 100,> 100,> 100,> 100,> 100
c1ccc2c(c1)CCN1CCc3ccccc3C1C2 (stereo not drawn),> 100,> 100,> 100,> 100,> 100,> 100,> 100,> 100,> 100,> 100,> 100
O=C1CSC(c2ccccc2)N1c1ccc(-c2ccc(-n3c(-c4ccccc4)nc4ccccc4c3=O)cc2)cc1 (stereo not drawn),> 100,> 100,> 100,> 100,> 100,> 100,> 100,,> 100,> 100,> 100
COc1ccc(/C=C2/SC(=Nc3ccccc3)N(NC(=O)Cc3ccccc3)C2=O)cc1,> 100,> 100,> 100,> 100,,,> 100,> 100,> 100,> 100,> 100
COc1ccc(C[C@H]2COC(=O)[C@@H]2Cc2ccc(Br)cc2)cc1OC,> 100,84.2,> 100,> 72,> 89.5,> 71.1,> 100,85.1,96.8,> 74.3,79.5
COC(=O)c1cc(/C=C/C(=O)Cc2ccccc2)cn1S(=O)(=O)c1ccccc1,> 100,> 100,> 100,> 100,> 100,> 100,> 100,> 100,> 100,> 100,
Cc1cn(C2CC(O)C(Cn3nncc3Cn3cnc4c(N)ncnc43)O2)c(=O)[nH]c1=O (stereo not drawn),> 100,> 100,> 100,,> 100,> 100,> 100,> 100,> 100,> 100,> 100
COc1cc(-c2nc(N)c(C#N)c3c2CCS(=O)(=O)c2ccc(C)cc2-3)cc(OC)c1OC,> 100,> 100,> 100,> 100,> 100,> 100,> 100,75.9,> 100,,54.8
Cc1cc2c(cc1Cl)SC(NNCCO)=NS2(=O)=O,,> 100,> 100,> 100,,,,> 100,> 100,> 100,> 100
CC1=CC2(C)C=C[C@@H]1C(=O)[C@@]1(C)CC[C@@](O)(C(C)C)[C@H]1CC2,> 100,60.7,55.8,52.1,36.2,,34.6,58.3,45.5,38.1,28.2
O=c1ccn(C/C=C/c2ccccc2)c(=S)n1C/C=C/c1ccccc1,> 100,> 100,> 100,> 100,> 100,> 100,> 100,> 100,> 100,> 100,> 100
CCOC(=O)/C(=C\c1c[nH]c2ccccc12)P(=O)(OCC)OCC,> 100,62.7,72.6,> 100,> 100,89.9,87.9,75.6,> 100,> 100,77.1
CN(C)c1n2c3ccc([N+](=O)[O-])cc3n3c(N(C)C)[n+]4ccccc4c3c2c2cccc[n+]12,> 100,> 100,> 100,> 100,> 100,> 100,> 100,> 100,> 100,> 100,> 100
COc1ccc(C[C@@H](C(=O)N[C@@H](C)C(N)=O)N(C)C(=O)[C@@H]2CCCN2C(=O)[C@H](CC(C)C)NC(=O)C(C)NC(=O)OCc2ccccc2)cc1 (stereo partly drawn) (Cbz-[ξA]LP[NMeY](Me)A-NH2),> 100,> 100,> 100,> 100,> 100,> 100,> 100,> 100,> 100,> 100,> 100
CC(=O)Oc1ccc2c(c1)[nH]c1c3ccc(OC(C)=O)cc3oc(=O)c21,> 100,68.2,> 100,> 100,> 100,> 100,> 100,> 100,> 100,> 100,> 100
Nc1c(F)c(F)c2c(c1F)N(CCCCCl)c1ccccc1S2,> 100,> 100,> 100,> 100,> 100,> 100,> 100,> 100,> 100,> 100,> 100
